ChEMBL document CHEMBL1134135, “Nitrobenzene compounds inhibit expression of VCAM-1” (Bioorg Med Chem Lett, 2001)

molecular target: T1, Vascular cell adhesion protein 1 (Homo sapiens, UniProt P19320); assay: Ability to inhibit expression of Vascular cell adhesion molecule 1; No effect
T1 sequence (P19320 whole entry): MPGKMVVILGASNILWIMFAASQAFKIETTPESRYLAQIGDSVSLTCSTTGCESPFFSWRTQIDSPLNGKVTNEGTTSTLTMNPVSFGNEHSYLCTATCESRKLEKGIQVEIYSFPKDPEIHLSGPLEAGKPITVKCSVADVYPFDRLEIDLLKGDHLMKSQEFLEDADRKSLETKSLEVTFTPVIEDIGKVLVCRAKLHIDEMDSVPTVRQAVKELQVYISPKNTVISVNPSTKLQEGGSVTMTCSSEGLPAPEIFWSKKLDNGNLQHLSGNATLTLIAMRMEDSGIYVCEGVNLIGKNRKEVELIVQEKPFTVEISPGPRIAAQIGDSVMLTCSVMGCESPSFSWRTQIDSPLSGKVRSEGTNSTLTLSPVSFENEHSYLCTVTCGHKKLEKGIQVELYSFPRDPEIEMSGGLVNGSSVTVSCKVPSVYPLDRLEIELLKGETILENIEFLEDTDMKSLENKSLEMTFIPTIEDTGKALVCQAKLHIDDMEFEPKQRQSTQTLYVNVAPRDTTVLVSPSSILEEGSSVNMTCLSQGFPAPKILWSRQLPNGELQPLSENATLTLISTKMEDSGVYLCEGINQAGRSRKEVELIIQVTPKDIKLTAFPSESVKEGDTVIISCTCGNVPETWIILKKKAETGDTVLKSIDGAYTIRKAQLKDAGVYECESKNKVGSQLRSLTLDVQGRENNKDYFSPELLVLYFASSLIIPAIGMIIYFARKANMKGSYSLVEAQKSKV

Row | IC50 | SMILES
1 | Not Active | CCN(CC)S(=O)(=O)c1ccc(Cl)cc1
2 | Not Active | O=C(O)C1CCN(S(=O)(=O)c2ccc(Cl)c([N+](=O)[O-])c2)CC1
3 | Not Active | CCN(CC)S(=O)(=O)c1cccc([N+](=O)[O-])c1
4 | Not Active | CCN(CC)c1ccc(S(=O)(=O)N(CC)CC)cc1[N+](=O)[O-]

Row | SMILES | IC50
5 | N#Cc1cc(Cl)cc(Cl)c1 | Not Active
6 | O=[N+]([O-])c1ccccc1Cl | Not Active
